Experimental data reported in publication PMC6063800 (Peptides, 2018).
Where a name gives a salt, the structure may show the parent alone. No end group written: not given here.

What was measured:
[1] = system: Staphylococcus aureus USA300; test: microbe, parasite or virus in culture; format: cell-based; details: for MIC, SA: USA300, 20 h
[2] = system: Escherichia coli ATCC 25922; test: microbe, parasite or virus in culture; format: cell-based; details: for MIC, EC: ATCC 25922, 20 h
[3] = system: Pseudomonas aeruginosa PAO1; test: microbe, parasite or virus in culture; format: cell-based; details: PAO1, 20 h
[4] = system: Klebsiella pneumoniae ATCC 13883; test: microbe, parasite or virus in culture; format: cell-based; details: for MIC, KP: ATCC 13883, 20 h
[5] = system: Bacillus subtilis 168; test: microbe, parasite or virus in culture; format: cell-based; details: for MIC, BS: 168, 20 h
[6] = system: S. aureus USA300; test: Checkerboard synergy of peptide and antibiotics; format: cell-based, Staphylococcus aureus; details: in combination with temporin-1OLa
[7] = system: S. aureus USA300 biofilm; test: Disruption of 24-h preformed biofilms; format: cell-based, Staphylococcus aureus; details: linezolid in the presence of 1.56 μM temporin-1OLa versus antibiotic alone, XTT
[8] = system: Candida albicans ATCC 10231; format: cell-based; details: ATCC 10231, 48 h
[9] = system: C. glabrata ATCC 2001; format: cell-based, Candida glabrata; details: ATCC 2001, 48 h
[10] = system: C. tropicalis ATCC 13803; format: cell-based, Candida tropicalis; details: ATCC 13803, 48 h
[11] = system: Human red blood cells (hRBC); test: Hemolytic assay; format: cell-based; details: red cells of human, 1 h

## CN[C@H](CC(C)C)C(=O)N[C@H]1C(=O)N[C@@H](CC(N)=O)C(=O)N[C@H]2C(=O)N[C@H]3C(=O)N[C@H](C(=O)N[C@H](C(=O)O)c4cc(O)cc(O)c4-c4cc3ccc4O)[C@H](O)c3ccc(c(Cl)c3)Oc3cc2cc(c3O[C@@H]2O[C@H](CO)[C@@H](O)[C@H](O)[C@H]2O[C@H]2C[C@](C)(N)[C@H](O)[C@H](C)O2)Oc2ccc(cc2Cl)[C@H]1O [Vancomycin, vancomycin hydrochloride, reference compound]
[1]; Staphylococcus aureus, MRSA|USA300, 20 h, read-out: MIC, SA
  MIC: 0.78 µM
[2]; Escherichia coli, ATCC25922, 20 h, read-out: MIC, EC
  MIC: > 50 µM
[3]; Pseudomonas aeruginosa, read-out: MIC, PA
  MIC: > 50 µM
[4]; Klebsiella pneumoniae, ATCC13883, 20 h, read-out: MIC, KP
  MIC: > 50 µM
[5]; Bacillus subtilis, 168, 20 h, read-out: MIC, BS
  MIC: > 3.1 µM

## CC(=O)NC[C@H]1CN(c2ccc(N3CCOCC3)c(F)c2)C(=O)O1 [linezolid]
[6]
  combined effect with the peptide: additive effect
[7]
  disruption of 24 h established biofilms by combination: reduce biofilms more effectively

## FLPIVGRLISGIL [temporin-CPb]
[8]
  MIC, C. albicans: 50 µM
[9]
  MIC, C. glabrata: >50 µM
[1]
  MIC, SA: 12.5 µM
[2]
  MIC, EC: >50 µM
[3]
  MIC, PA: >50 µM
[4]
  MIC, KP: >50 µM
[5]
  MIC, BS: 25 to 50 µM
[10]
  MIC, C. tropicalis: 6.2 to 12.5 µM

## FLPLLASLFSRLF [temporin-1Oc]
[11]
  HL50 (peptide concentration that causes 50% hemolysis): <12.5 µM
[8]
  MIC, C. albicans: 25 µM
[9]
  MIC, C. glabrata: 25 µM
[2]
  MIC, EC: >50 µM
[3]
  MIC, PA: >50 µM
[4]
  MIC, KP: >50 µM
[5]
  MIC, BS: 12.5 µM
[10]
  MIC, C. tropicalis: 1.6 to 3.1 µM

## FLSAITSILGKFF [temporin-1SPa]
[11]
  HL50 (peptide concentration that causes 50% hemolysis): 37.5 µM
[8]
  MIC, C. albicans: 25 µM
[9]
  MIC, C. glabrata: 25 µM
[1]
  MIC, SA: 6.3 µM
[2]
  MIC, EC: >50 µM
[3]
  MIC, PA: >50 µM
[4]
  MIC, KP: >50 µM
[5]
  MIC, BS: 12.5 µM
[10]
  MIC, C. tropicalis: 6.2 µM

## IPPFIKKVLTTVF [temporin-CPa]
[8]
  MIC, C. albicans: 25 µM
[9]
  MIC, C. glabrata: 12.5 µM
[1]
  MIC, SA: ≥25 µM
[2]
  MIC, EC: 12.5 µM
[3]
  MIC, PA: >50 µM
[4]
  MIC, KP: 50 µM
[5]
  MIC, BS: 50 µM
[10]
  MIC, C. tropicalis: 3.1 to 6.2 µM

## SILPTIVSFLSKVF [temporin-1Ga]
[11]
  HL50 (peptide concentration that causes 50% hemolysis): 12.5 µM
[8]
  MIC, C. albicans: 12.5 µM
[9]
  MIC, C. glabrata: 12.5 µM
[1]
  MIC, SA: 3.1 µM
[2]
  MIC, EC: >50 µM
[3]
  MIC, PA: >50 µM
[4]
  MIC, KP: >50 µM
[5]
  MIC, BS: 6.3 µM
[10]
  MIC, C. tropicalis: 3.1 µM
